In patent US20220008401A1, “COMPOSITIONS AND METHODS FOR TREATING PULMONARY DISEASE WITH MATRIX METALLOPROTEINASE INHIBITORS” (DARSHA LLC, priority 2019, published 2022):

Legend:
human neutrophils = assay: Human neutrophil migration in modified Boyden chamber (FMLP chemoattractant); type: cell-based; details: for neutrophil migration into the basal chamber: 1 hour
Description: To determine if this effect was relevant in humans we utilized a modified Boyden chamber to assess the effect of Compound 1 on migration of human neutrophils. […] The basal chamber was filled with media containing the chemoattractant N-Formylmethionyl-leucyl-phenylalanine (FMLP) or vehicle. The apical chamber was seeded with ˜100,000 neutrophils with the addition of Compound 1 or vehicle. In the basal chamber, the neutrophils were allowed to migrate for 1 hour after which the basal chamber was fixed, stained with DAPI, and photographed. Five fields per well were imaged and the number of neutrophils counted using NIH ImageJ.

neutrophils (PMN) = assay: Myeloperoxidase staining of lung sections, LPS-injured mice, single inhaled dose; type: in vivo; details: LPS treated mice
Description: Since substantial literature indicates neutrophils (PMN) are critical mediators of inflammatory damage in injured lung, we next assessed if inhaled Compound 1 attenuated PMN infiltration of LPS injured lungs. To achieve this, mice were injured with LPS and 24 h later received a single inhaled dose of Compound 1 and were sacrificed 1 hour after dosing. PMN infiltration was assessed by examining lung sections (qualitatively) and BALF (quantitatively) from Compound 1 treated and untreated mice. To assess the effects of Compound 1 on PMN in situ, paraffin embedded lung sections (prepared as described previously) were stained for myeloperoxidase, a PMN marker.

LPS injured mice = assay: FITC-albumin exclusion assay (BALF:serum), LPS-injured mice, q6h x 4 doses; type: in vivo; details: LPS then inhaled Compound 1 every 6 hours for 4 doses; n=5 (LPS alone 1.04±0.13, PBS 0.44±0.11)
Description: Based on the data, the effect of a 6 hour dosing interval (q6h) of Compound 1 on injured mice lung was explored. FIG. 8B schematizes the experimental LPS injury/Compound 1 treatment workflow utilized unless otherwise indicated. Briefly, mice were nasally instilled with LPS (1.5 mg/kg) followed by initiation of Compound 1 treatment 24 hours later (i.e., after a 24 hours rest period). Four doses of Compound 1 (12 mg/kg) were administered via nebulizer every 6 hours to maintain a constant presence of compound in the lung. PBS was administered as a control. Mice were sacrificed 6 hours following the fourth dose. It was next determined if LPS induced edema was a result of increased permeability of the pulmonary vascular barrier. This was achieved using a FITC-albumin exclusion assay. Approximately 1 hour prior to sacrifice, mice received a tail vein injection of 3 mg of FITC labeled albumin. BALF and serum were collected and the amount of labeled albumin in each sample (BALF FITC Albumin:serum FITC Albumin) was determined using a fluorescent plate reader.

neutrophils [1] = assay: Neutrophil influx: myeloperoxidase staining and BALF differential cell counts, LPS-injured mice, q6h x 4 doses; type: in vivo
Description: Mice were nasally instilled with LPS followed by treatment with CGS every 6 hours for 4 doses. Mice were sacrificed 6 hours after the 4th dose of Compound 1 and lungs and BALF were collected for analysis. Paraffin embedded lung sections ([…]) were stained for myeloperoxidase, a neutrophil marker, followed by detection using DAB, to assess parenchymal neutrophil infiltration.
Differential cell counts were taken from each animal's cytospin with at least 3 separate images counted.

neutrophils [2] = assay: BrdU pulse-chase labeling of newly synthesized neutrophils in BALF of LPS-exposed mice; type: in vivo; details: LPS treated mice, n=3 (49.3±0.87% without treatment)
Description: To examine the hypothesis that reduced neutrophil counts in response to Compound 1 treatment resulted from decreased cell migration from the pulmonary circulation, pulse-chase labeling of newly synthesized neutrophils in LPS exposed animals was performed. LPS or saline was nasally instilled into mice which were then allowed to recover for 24 hours. Following this, an intraperitoneal injection (IP injections) of bromodeoxyuridine (BrdU) was administered and animals were allowed to rest for 2.5 hours. A 2.5-hour rest period was selected since it was previously determined that BrdU labeled neutrophils take about 3 hours to reach and infiltrate the lungs. At 2.5 hours animals received inhaled Compound 1 or PBS and were sacrificed at either 15- or 45 minutes post-treatment. Cytospin slides were generated from BALF and immunofluorescently stained for BrdU and MPO to identify neutrophils. Confocal images were taken of cytospins stained for BrdU and MPO (myeloperoxidase). The number of BrdU (+) and BrdU (−) neutrophils was quantified.

caspase 3/7 = assay: Caspase 3/7 activity assay on lung homogenate of LPS-injured mice; type: in vivo; details: LPS-CGS group, four inhaled doses q6h starting 24 hours after LPS, n≥4 (LPS-PBS 0.81±1.15)
Description: It was also examined if Compound 1 would reduce the levels of apoptosis associated with injury by LPS. Because the time line of apoptosis takes hours, an additional set of mice were injured with LPS (1.5 mg/kg of 1 mg/ml solution in sterile PBS) followed by initiation of treatment with Compound 1 twenty four hours later. The mice received four doses of Compound 1 (one dose every six hours over a total duration of 24 hours in accordance with the treatment schedule described below with reference to FIG. 8B). The mice were sacrificed and their lungs were harvested and assessed for caspase 3 activity by western blot for cleaved caspase 3 and a caspase 3/7 activity assay obtained from ThermoFisher.
FIG. 5B is the relative densitometric quantification of western blots for cleaved caspase 3: whole caspase ratio. […] FIG. 5C depicts the results of the caspase 3/7 activity assay performed on mouse lung homogenate. […] The increase in caspase 3/7 activity was attenuated by inhaled treatment with Compound 1. FIG. 5D depicts 20× images (570A, 570B, and 570C) of representative sections of lung tissue fluorescently stained for cleaved caspase-3 (red) and cell nuclei (blue) in a control lung tissue (570A), a lung tissue of a mouse treated with LPS only (570B), and lung tissue of a mouse treated with LPS and Compound 1 (570C) (n=3).

[3] = system: mice exposed to cigarette smoke; assay: Cigarette smoke exposure model, BALF total cell counts; type: in vivo; details: cigarette smoke 10 days; inhaled Compound 1 once a day for last four days; sacrifice 1 hour after final dose
Description: In order to determine if the observed effects of Compound 1 were specific to a model of acute lung injury, we exposed mice to cigarette smoke, a more chronic model of lung injury, for 10 days while treating once a day with inhaled Compound 1 for the last four days of smoke exposure. Mice were sacrificed 1 hour following their final dose of Compound 1 on the 10th day. BALF was collected and total cell counts were performed. […] (*p<0.05).

butanamide, N-hydroxy-2-[[(4-hydroxyphenyl)sulfonyl](3-pyridinylmethyl)amino]-3-methyl, hydrochloride, (2R) [Compound 1]
neutrophil migration into the basal chamber (human neutrophils; 10 nm CGS, no FMLP, n=4): 233±61 cells | neutrophil migration into the basal chamber (human neutrophils; 20 nm CGS, no FMLP, n=4): 293±148 cells | inhibition of FMLP-induced neutrophil migration (human neutrophils; FMLP + 10 nm Compound 1): did not achieve significance | neutrophil migration into the basal chamber (human neutrophils; FMLP+20 nm CGS, n=4 (FMLP alone 4280±480)): 2819±362 cells | PMN infiltration into the lung parenchyma (myeloperoxidase staining) (neutrophils (PMN)): attenuates PMN infiltration into the lung parenchyma | FITC-albumin BALF:serum ratio (LPS injured mice): 0.49±0.13 | overall inflammatory cell count in BALF (neutrophils [1]; LPS then every 6 hours for 4 doses, n≥4 (LPS only 8.0e6±5.7e6)): 8.6e5±3.7e5 cells/mL | parenchymal neutrophil infiltration (myeloperoxidase staining) (neutrophils [1]; LPS then every 6 hours for 4 doses, sacrifice 6 hours after 4th dose): qualitatively reduced parenchymal neutrophil infiltration | neutrophil count within the BALF (neutrophils [1]; LPS-CGS group, every 6 hours for 4 doses, n≥5 (LPS-PBS 8.0e6±5.7e6)): 2.4e6±1.2e6 cells/ml | percentage of BrdU (+) neutrophils (neutrophils [2]; 15 minutes post inhaled treatment): 16.7±3.6% | percentage of BrdU (+) neutrophils (neutrophils [2]; 45 minutes post inhaled treatment): 22.7±2.5% | caspase 3/7 activity (caspase 3/7): 0.05 ± 0.16 µM | smoke induced increase in BALF cell counts [3]: failed to attenuate
